Assay results: patent US20220378711A1, “PH-Responsive Nanoparticles for Treating Cancer” (United States Government as represented by the Department …, priority 2021, published 2022)
Where two headings read alike, the source gives them in different places.

What was measured:
[1] = test system: MIA PaCa-2 cells; assay: MTT cell viability and CompuSyn synergy assay; type: cell-based; settings: MIA PaCa-2, 72 h MTT
Description: (§1) PDAC cells (5000 cells/well) were seeded in 96-well plates and, 24 h later, cells were treated with different concentrations of nanocapsulated SCH 772984, DEM, or their combinations. Control cells were treated with an equivalent level of DMSO. Drug concentrations were optimized for the cell-based assay of the individual drug. At 72 h after treatment, the cell viability assay was performed by adding 10 μL of the 3-(4,5-dimethylthiazol-2-yl)-2,5-diphenyltetrazolium bromide (MTT) reagent to each well, and the plates were incubated for 3 h at 37° C. The MTT reagent was removed, DMSO (100 μL/well) was added to solubilize the crystals, and absorbance was measured at 570 nm. Synergy analysis was performed using CompuSyn software.
(§2) The data was fitted in CompuSyn. These two cell lines were selected because MIA PaCa-2 cells are responsive to ERKi and GEM compared to Panc-1. […] However, consistent with previous studies, the Panc-1 cells were more resistant to these drugs compared to MIA PaCa-2 cells.

[2] = test system: Panc-1 cells; assay: MTT cell viability and CompuSyn synergy assay; type: cell-based; settings: Panc-1, 72 h MTT
Description: as §1, §2

[3] = test system: MIA PaCa-2 cells; assay: Clonogenic survival assay; type: cell-based
Description: PDAC cells were seeded at a density of 400 cells/well in 6-well plates. The following day, cells were treated with nanoencapsulated ERKi at a concentration of 0.01 nM, carrier-encapsulated GEM at a concentration of 0.1 nM, and a combination of 0.01 nM encapsulated ERKi, and 0.1 nM encapsulated GEM for 12 days. After the incubation time, the medium was removed, and the cells were fixed with 3:1 methanol/glacial acetic acid for 15 min at room temperature. After the fixing reagent was removed, the cells were stained with 0.5% crystal violet solution (in methanol) for 15 min. The plates were washed thoroughly with tap water to remove residual crystal violet. The plates were dried overnight, and the colonies were counted using Colony Doc-It imaging station using Colony Doc-It imaging software.
To examine the link between ERK and GEM resistance in PDAC cells, a Clonogenic assay was performed for anchorage-dependent growth in MIA PaCa-2 and Panc-1 cell lines in the presence or absence of free or encapsulated ERKi (10 nM) or GEM (100 nM) alone or a combination of these two drugs for 12 days. The half-effective doses of encapsulated ERKi or encapsulated GEM was purposely selected from the preceding studies shown in FIG. 6 and FIG. 7 because these doses of free-drugs have minimal or no effect on PDAC cell viability (FIG. 6) and ERK phosphorylation (FIG. 7).

[4] = LC-MS drug concentration in tumor xenograft tissue; type: in vivo, nude mice; settings: nude, mouse, intraperitoneal, injected ip as drug-pH NPs, 75 mg/kg SCH772984, 40 mg/kg GEM, read-out: drug concentration in tumor tissues
Description: LC-MS analysis of drugs was performed on a Q-TOF Synapt G2S mass spectrometer (Waters, Milford, Mass.) coupled with an Acquity UPLC system (Waters). Drugs were resolved on an ACUITY UPLC HSS T3 column ([…], 100 Å pore diameter, 2.1 mm×150 mm, Waters) with an acetonitrile/water gradient containing 0.1% formic acid. GEM was detected as [M+H]+, and SCH 772984 was detected as [M+2H]2+ in a positive ESI mode.
Next, in vivo studies to obtain information on the systemic stability and tumor enrichment capacity of pH NPs were performed. The fate of drug-encapsulated nanoparticles in the MIA PaCa-2-pancreatic tumor xenograft model in immune-compromised nude mice was studied. Upon intraperitoneal (ip) administration of free or drug-pH NPs [75 mg/kg for SCH772984 and 40 mg/kg for GEM; human equivalent dose (HED)] for 48 h in tumor-bearing mice (N=3), the drug concentrations in tumor tissues was measured using LC-MS.

[5] = cited from earlier work
[6] = test system: ERK phosphorylation (p44/p42 MAPK/ERK1/2); assay: Western blot of ERK activity in PDAC cells; type: cell-based
Description: Western blot analysis was the same as described in Mol. Cancer Ther. 2019, 18, 788-800. Briefly, cells were seeded at a cell density of 500,000 cells/well in 6-well plates. About 60% of confluent cells were treated with nanoparticles alone (NPA), free ERKi (FEI), or encapsulated ERKi (EEI) for 3 h at 0.001, 0.01, 0.1, 1, and 10 nM concentrations of the drug. Cells were lysed in a lysis buffer (50 mmol/L Tris pH7.4, 150 mmol/L sodium chloride, 1% NP-40, 0.25% sodium deoxycholate, 1 mmol/L EDTA) containing PMSF and Protease/Phosphatase Inhibitor Cocktail (Cell Signaling Technologies). Proteins were quantified with the Pierce BCA protein assay kits (Thermo Fisher Scientific). Under reducing conditions, a […] sample was loaded onto 10% SDS gels for the separation of proteins, and the resulting gel was transferred onto a […] nitrocellulose membrane. The blots were then immersed in a 5% blocking buffer made in Tris base and Tween-20 followed by incubation with antibodies against total-ERK and phospho-ERK primary antibodies (Cell Signaling Technologies; diluted in blocking buffer at 1:1000) overnight. The secondary antibody was incubated for 1 h at room temperature. The signal from the blots was detected using the Super Signal West Femto Maximum Sensitivity substrate (Thermo Fisher).
To determine the functional efficacy of ERKi-pH NPs, the question of whether encapsulated ERKi SCH 772984 can suppress the ERK activity by suppressing ERK phosphorylation (p44/p42 MAPK/ERK1/2) in PDAC cells was investigated. To do so, MIA PaCa-2 cells were exposed to nanoparticles free of SCH 772984 or encapsulated with SCH 772984 with different doses (0.1-100 nM) for 3 hours. Following treatment, total, phospho-ERK, RSK, and GAPDH were determined using Western blot analysis in the cell extracts.

[7] = cited from earlier work; remark: listed apart in the source

IC50 of free drug compared with encapsulated drug [1]	IC50 of free drug compared with encapsulated drug [2]	concentration at 48 h [4] [ng/g]	Structure (SMILES)	survival and colony-forming ability ([3]; MIA PaCa-2, 12 days, ERKi 10 nM, GEM 100 nM)	pKa [5]	change of pERK level, less than 10 nM encapsulated ERKi ([6]; 10 nM, MIA PaCa-2) [fold]	total ERK and total RSK expression ([6]; MIA PaCa-2, 3 hours)	p-ERK and p-RSK levels ([6]; MIA PaCa-2, 3 hours, dose-dependent)	concentration at which inhibitory effect on p-ERK/p-RSK was first detected ([6]; MIA PaCa-2, 3 hours, doses 0.1-100 nM) [nM]	effect of ERKi on GEM's effect on PDAC cells ([3]; ERKi at minimum inhibitory concentration (0.01 nM))	solubility [7]	solubility ([7]; listed as unencapsulated ERKi)
markedly higher	markedly higher	~4	Nc1ccn([C@@H]2O[C@H](CO)[C@@H](O)C2(F)F)c(=O)n1 [GEM, gemcitabine]	decrease the colony-forming ability of these cells significantly								
			CCCCNCCNCCCC [N,N′-dibutylethylenediamine]		4.0							
markedly higher	markedly higher	~2	O=C(Nc1ccc2[nH]nc(-c3ccncc3)c2c1)[C@@H]1CCN(CC(=O)N2CCN(c3ccc(-c4ncccn4)cc3)CC2)C1 [SCH 772984]			2.4	did not affect	markedly decreased	100	significantly enhances	low water solubility	extremely poor solubility
